Source: patent US9506032B2, “Engineered biological pacemakers” (The United States of America, as represented by the …, priority 2009, dated 2016)

Columns and labels:
Assay type in all cases: cell-based, Mouse
[1] = test system: spontaneously beating ESCs; assay: Spontaneous action potentials and Ca2+ signals in intact spontaneously beating ESCs (patch clamp with confocal imaging); details: for LCRs (effect of intervention) / spontaneous AP firing and Ca2+ transients: intact spontaneously beating ESCs (FIG. 6)
Description: (§1) Mouse ES cells of line R1 were differentiated into cardiac cells using the “hanging drop” technique. ESCs were isolated from in vitro-grown embryoid bodies by microdissection followed by collagenase treatment. […] At day 2, EBs were transferred into bacteriological petri dishes and cultured in suspension until day 5. […] Individual spontaneously beating ESCs were isolated by microdissection and collagenase treatment.
ESCs differentiated in vitro for 9 to 20 days after plating of 7 days old embryoid bodies were studied during continuous superfusion with solution containing in mmol/L: 140 NaCl, 5.4 KCl, 5 HEPES, 2 MgCl2, 1.8 CaCl2, 10 glucose, (pH adjusted to 7.4 with NaOH). Selection of the cells for patch-clamp technique was based on spontaneous beating. Action potentials were measured at physiological temperature (35±2° C.) with standard current-clamp technique (Axopatch 200, Axon Instruments, Foster City, Calif., USA), pCLAMP7 software was used for data acquisition and analysis (Axon Instruments). Perforated patch-clamp technique was performed with β-escin added to the electrode solution. Patch pipette solution contained in mmol/L: 120 K-gluconate, 5 NaCl, 5 Mg-ATP, 5 HEPES, 20 KCl, 3 Na2ATP (pH adjusted to 7.2 with NaOH). […] Patch pipette filling solution contained (in mmol/L) 120 CsCl, 10 NaCl, 20 tetraethylammonium chloride, 5 MgATP, and 20 HEPES (pH 7.2 adjusted with CsOH), and 100 μmol/L fluo-4 pentapotassium salt (Molecular Probes). Four conditioning pulses of 100 ms and 0 mV were delivered at 1.0 Hz prior to each test voltage pulse to load the SR with Ca^2+.
In whole cell configuration, fluo-4 was added directly to the pipette solution.
(§2) Fluo-4 measurements are presented in terms of F/F0 (normalized Ca^2+ signal). […] were analyzed by programs developed using Delfi-7 software. The duration and width of LCRs were measured as the time at half-maximal amplitude of the normalized signal.

[2] = test system: Na+/Ca2+ exchanger (NCX) current in ESCs; assay: Inward NCX current spikes in ESCs voltage-clamped at -50 mV; details: voltage clamp −50 mV, Na+ substituted by Li+ inhibiting NCX; 10 to 20 pA in control
Description: ESCs differentiated in vitro for 9 to 20 days after plating of 7 days old embryoid bodies were studied during continuous superfusion with solution containing in mmol/L: 140 NaCl, 5.4 KCl, 5 HEPES, 2 MgCl2, 1.8 CaCl2, 10 glucose, (pH adjusted to 7.4 with NaOH). Selection of the cells for patch-clamp technique was based on spontaneous beating. Action potentials were measured at physiological temperature (35±2° C.) with standard current-clamp technique (Axopatch 200, Axon Instruments, Foster City, Calif., USA), pCLAMP7 software was used for data acquisition and analysis (Axon Instruments). Perforated patch-clamp technique was performed with β-escin added to the electrode solution. Patch pipette solution contained in mmol/L: 120 K-gluconate, 5 NaCl, 5 Mg-ATP, 5 HEPES, 20 KCl, 3 Na2ATP (pH adjusted to 7.2 with NaOH). Recording of L-type Ca^2+ current (ICaL) simultaneously with Ca^2+ signal imaging (see Example 3) were performed under whole cell voltage clamp. […]
When activation of ion channels and APs are disabled by voltage clamp at −50 mV, spontaneous LCRS for at least 5 s were observed (FIG. 4, Panel A). […] It was determined under the voltage clamp whether LCRs can cause the current spikes via NCX activation. […]

saponin-skinned ESCs = assay: Local Ca2+ releases (LCRs) in saponin-skinned ESCs, confocal line-scan Ca2+ imaging; details: for LCRs (effect of drug): skinned ESCs, 150 nmol/L free [Ca2+]
Description: as §1, §2

`CC(=O)OCOC(=O)CN(CC(=O)OCOC(C)=O)c1ccccc1OCCOc1ccccc1N(CC(=O)OCOC(C)=O)CC(=O)OCOC(C)=O` [BAPTA-AM] was tested, and the “LCRs (effect of intervention)” value [1] was “inhibited” and the “spontaneous AP firing and Ca2+ transients” value [1] was “became irregular, culminating in cessation of automaticity or in extremely rare and irregular beating”.

With `Nc1ncnc2c1nc(Sc1ccc(Cl)cc1)n2[C@@H]1O[C@@H]2COP(=O)(O)O[C@H]2[C@H]1O` [CPT-cAMP] the “cycle length (CL) variability index (100%×CL standard deviation/CL mean)” value ([1]; cells with irregular beating, after 300 μmol/L CPT-cAMP, before 23.98+/−4.82%, P<0.05) was 11.23+/−2.68% and the rhythmicity of beating ([1]; irregularly beating ESCs, 300 μmol/L CPT-cAMP) was “converted irregularly beating ESCs to rhythmic pacemakers”.

For `O=S(=O)(NCCNC/C=C/c1ccc(Br)cc1)c1cccc2cnccc12` [H89], the “APs / automaticity on PKA inhibition” value ([1]; spontaneously beating ESCs, 10 μmol/L) was “irregUlar APs or cessation of automaticity”.

In the case of `[Li+]` [Li^+], the “spontaneous excitation (APs)” value ([1]; Na+-free lithium solution applied ~1 s, zero-current clamp, rhythmic LCRs continued) is reported as “excitation failure” and the “high-amplitude inward current spikes” value [2] is reported as “disappeared”.

For `Nc1ncnc2c1ncn2[C@@H]1O[C@@H]2COP(=O)(O)O[C@H]2[C@H]1O` [cAMP, cyclic AMP], the “local Ca2+ oscillators” value (saponin-skinned ESCs; saponin-skinned ESCs, stimulation with 20 μmol/L cAMP) was “emergence of new local Ca^2+ oscillators in many cell locations”.

In the case of `CCCCNc1ccc(C(=O)OCCN(C)C)cc1` [tetracaine], the “LCRs (effect of drug)” value (saponin-skinned ESCs; 1 mmol/L drug) is reported as “inhibited”.

For `C/C=C(/C)C(=O)O[C@H]1C(C)=C2[C@H]([C@@H]1OC(=O)CCCCCCC)[C@@](C)(OC(C)=O)C[C@H](OC(=O)CCC)[C@@]1(O)[C@H]2OC(=O)[C@@]1(C)O` [thapsigargin], the “LCRs (effect of drug)” value (saponin-skinned ESCs; 10 μmol/L drug) was “inhibited”, the “LCRs (effect of intervention)” value [1] was “inhibited” and the “spontaneous AP firing and Ca2+ transients” value [1] was “became irregular, culminating in cessation of automaticity or in extremely rare and irregular beating”.

In the case of ryanodine, the “LCRs (effect of drug)” value (saponin-skinned ESCs; 10 μmol/L drug) is reported as “inhibited”, the “LCRs (effect of intervention)” value [1] is reported as “inhibited” and the “spontaneous AP firing and Ca2+ transients” value [1] is reported as “became irregular, culminating in cessation of automaticity or in extremely rare and irregular beating”.
